Reference: patent US10028961B2, “Therapeutically active compounds and their methods of use” (AGIOS PHARMACEUTICALS, INC., priority 2013, dated 2018)

How the values were obtained:
[1] = target: IDH1-R132H homodimer enzyme (Homo sapiens (Human), UniProt O75874, R132H); test: In vitro assay IDH1-R132H homodimer, NADPH depletion assay with NADPH/NADP preincubation; type: biochemical; conditions: 5 μM NADPH and 37.5 μM NADP
In short: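 Conversion of alpha-ketoglutarate to 2-hydroxyglutarate tracked by NADPH depletion. Reaction started with 5 mM alpha-ketoglutarate plus NADPH substrate mix (50 μl total), 60 min at room temperature. Leftover NADPH quantified via diaphorase/resazurin fluorescence.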

IDH2 R140Q [2] = target: T1, IDH2 R140Q (Homo sapiens (Human), UniProt P48735, R140Q); test: In vitro assay for IDH2m R140Q inhibitors, cofactor depletion assay; type: biochemical; conditions: IDH2 R140Q enzyme
T1 sequence (P48735 40-452 R140Q): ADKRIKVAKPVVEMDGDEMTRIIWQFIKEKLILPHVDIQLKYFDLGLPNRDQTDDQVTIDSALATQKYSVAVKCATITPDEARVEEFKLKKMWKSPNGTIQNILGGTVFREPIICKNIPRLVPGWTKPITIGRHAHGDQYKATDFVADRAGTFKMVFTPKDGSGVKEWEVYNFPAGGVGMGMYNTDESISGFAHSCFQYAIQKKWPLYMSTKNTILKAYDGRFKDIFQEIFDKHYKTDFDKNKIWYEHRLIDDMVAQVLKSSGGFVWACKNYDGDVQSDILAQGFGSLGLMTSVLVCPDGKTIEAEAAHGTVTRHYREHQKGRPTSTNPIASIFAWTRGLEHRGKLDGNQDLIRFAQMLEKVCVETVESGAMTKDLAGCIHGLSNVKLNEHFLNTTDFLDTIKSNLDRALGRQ
In short: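 Remaining cofactor measured fluorimetrically: diaphorase/resazurin Stop Mix […], halting the reaction. Before that, mutant enzyme and compound sat 1 h at RT, then substrate mix (4 μM NADPH, 1.6 mM α-KG) was added for 16 h at RT.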

IDH2 R140Q [3] = target: T1, IDH2 R140Q; test: In vitro assay for IDH2m R140Q inhibitors, cofactor depletion assay, 16 hr preincubation with NADPH/NADP; type: biochemical; conditions: read-out: IDH2 R140Q 16 hr NADPH/NADP IC50; 16 hrs preincubation with enzyme, 5 uM NADPH and 750 uM NADP
Text: The following describes the experimental procedures used to obtain data on column 6 of Table 5.
The reaction is terminated by the addition of a second enzyme, diaphorase, and a corresponding substrate, resazurin. Diaphorase reduces resazurin to the highly fluorescent resorufin with the concomitant oxidation of NADPH to NADP, both halting the IDH2 reaction by depleting the available cofactor pool and facilitating quantitation of the amount of cofactor remaining after a specific time period through quantitative production of an easily detected fluorophore.
The test compound is then incubated for 16 hrs at room temperature with the enzyme and cofactors before starting the IDH2 reaction with the addition of 10 μl of substrate mix containing 8 mM α-KG (final concentration 1.6 mM) in the buffer described above. After a further 1 hour of incubation at room temperature, the reaction is halted and the remaining NADPH measured through conversion of resazurin to resorufin by the addition of 25 μl Stop Mix (36 μg/ml diaphorase enzyme and 60 μM resazurin; in buffer).

HT1080 cells = test: Cellular assay for IDH1m R132C inhibitors, 2-HG by LC-MS in HT1080 cells; type: cell-based; conditions: Homo sapiens, HT-1080
In short: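 HT1080 cells at 5000 cells/well were treated with compound (0.2% DMSO final). After 48 h, 2-HG in the medium was measured by LC-MS. Viability was read by CellTiter-Glo luminescence at 72 h.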

[4] = target: IDH1-R132C homodimer enzyme (Homo sapiens (Human), UniProt O75874, R132C); test: In vitro assay IDH1-R132C homodimer, NADPH depletion assay with NADPH/NADP preincubation; type: biochemical; conditions: 5 uM NADPH and 28.75 uM NADP, read-out: IDH R132C NADPH/NADP IC50
IDH1-R132C homodimer enzyme, sequence (O75874 whole entry R132C): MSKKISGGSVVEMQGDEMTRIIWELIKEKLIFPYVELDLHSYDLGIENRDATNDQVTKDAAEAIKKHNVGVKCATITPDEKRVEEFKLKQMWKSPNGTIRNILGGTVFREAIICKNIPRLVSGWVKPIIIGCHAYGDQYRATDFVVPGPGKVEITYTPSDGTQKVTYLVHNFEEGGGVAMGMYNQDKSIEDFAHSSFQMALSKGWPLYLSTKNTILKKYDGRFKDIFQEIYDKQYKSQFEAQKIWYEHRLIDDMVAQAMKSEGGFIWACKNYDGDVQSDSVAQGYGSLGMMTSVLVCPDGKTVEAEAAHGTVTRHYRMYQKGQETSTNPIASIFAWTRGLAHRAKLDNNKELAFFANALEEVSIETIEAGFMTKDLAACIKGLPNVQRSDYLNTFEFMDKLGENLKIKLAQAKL
Procedure: The following describes the experimental procedures that can be used to obtain data on columns 3 and 5 of Table 5.
A test compound is prepared as 10 mM stock in DMSO and diluted to 50× final concentration in DMSO, for a 50 μl reaction mixture. IDH enzyme activity converting alpha-ketoglutarate to 2-hydroxyglutaric acid is measured using a NADPH depletion assay. In the assay the remaining cofactor is measured at the end of the reaction with the addition of a catalytic excess of diaphorase and resazurin, to generate a fluorescent signal in proportion to the amount of NADPH remaining. […] The reaction is started with the addition of 10 μl of Substrate Mix ([…], 5 mM alpha-ketoglutarate, in Assay Buffer) and the mixture is incubated for 60 minutes at room temperature.
The concentration of alpha-ketoglutarate in the Substrate Buffer is 1 mM.

IDH1-R132H homodimer enzyme, sequence (O75874 whole entry R132H): as the sequence (O75874 whole entry R132C) above, with C132H counted along it

Structure (SMILES) | IC50 [1] [nM] | IC50 (IDH2 R140Q [2]) [nM] | IC50 (IDH2 R140Q [3]) [nM] | IC50 (HT1080 cells) [nM] | IC50 [4] [nM]
C[C@@H](Nc1nc(N[C@H](C)C2CC2)nc(-c2nccc(C(F)(F)F)n2)n1)C1CC1 [Compound 268] | > 1000 | 50 to 100 | 50 to 100 | 100 to 1000 | 
CC(C)(C)Nc1nc(Nc2cccc(C#N)c2)nc(-c2cccc(C(F)(F)F)n2)n1 [Compound 117] |  | < 50 | < 50 | > 1000 | 
CC(CC#N)Nc1nc(Nc2ccnc(C(C)(F)F)c2)nc(-c2cccc(C(F)(F)F)n2)n1 (stereo not drawn) [Compound 250] | 100 to 1000 | 100 to 1000 | 50 to 100 |  | 
CS(=O)(=O)N1CCC(Nc2nc(NC3CCC(F)(F)CC3)nc(-c3cccc(C(F)(F)F)n3)n2)CC1 [Compound 266] | > 1000 |  | 100 to 1000 | > 1000 | 
CC(C)(O)CNc1nc(Nc2cc(F)cc(C#N)c2)nc(-c2cccc(C(F)(F)F)n2)n1 [Compound 244] |  | < 50 | 50 to 100 | > 1000 | 
FC1(F)CCC(Nc2nc(NC3CCN(Cc4ccccc4)C3)nc(-c3cccc(C(F)(F)F)n3)n2)C1 (stereo not drawn) [Compound 280] | > 1000 |  | 100 to 1000 | > 1000 | 
FC1(F)CCC(Nc2nc(NC3CCC(F)(F)CC3)nc(-c3cncc(C(F)(F)F)n3)n2)CC1 [Compound 160] | 50 to 100 | < 50 |  | < 50 | 100 to 1000
FC1(F)CC[C@H](Nc2nc(Nc3ccnc(C(F)(F)F)c3)nc(-c3cncc(C(F)(F)F)n3)n2)C1 [Compound 391] | 50 to 100 | < 50 |  | 100 to 1000 | 100 to 1000
FC1(F)CCC(Nc2nc(Nc3ccnc(C(F)(F)F)c3)nc(-c3cccc(C(F)(F)F)n3)n2)C1 (stereo not drawn) [Compound 178] | 50 to 100 | < 50 | < 50 |  | 
FC1(F)CCC(Nc2nc(NC3CCOCC3)nc(-c3cccc(C(F)(F)F)n3)n2)CC1 [Compound 255] | 100 to 1000 |  | 100 to 1000 | 100 to 1000 | 
O=C(c1ccccc1)N1CCC(Nc2nc(NC3CCC(F)(F)C3)nc(-c3cccc(C(F)(F)F)n3)n2)C1 (stereo not drawn) [Compound 263] | 100 to 1000 |  | 100 to 1000 | 100 to 1000 | 
N#CC1(c2cc(Nc3nc(NC4CCC(F)(F)CC4)nc(-c4cccc(C(F)(F)F)n4)n3)ccn2)CC1 [Compound 189] | 100 to 1000 | < 50 |  | 100 to 1000 | 100 to 1000
CC(C)(C)Nc1nc(Nc2cc(F)cc(C#N)c2)nc(-c2nccc(C(F)(F)F)n2)n1 [Compound 245] |  | < 50 | < 50 |  | 
CC(=O)N1CCC(Nc2nc(NC3CCC(F)(F)CC3)nc(-c3cccc(C(F)(F)F)n3)n2)CC1 [Compound 273] | > 1000 |  | > 1000 | > 1000 | 

Other lines, results leading:

IC50 [1] [nM] | IC50 (IDH2 R140Q [2]) [nM] | IC50 (IDH2 R140Q [3]) [nM] | IC50 (HT1080 cells) [nM] | IC50 [4] [nM] | Structure (SMILES)
50 to 100 | < 50 |  | 100 to 1000 | 100 to 1000 | FC1(F)CCC(Nc2nc(Nc3ccnc(C(F)(F)F)c3)nc(-c3cncc(C(F)(F)F)n3)n2)CC1 [Compound 389]
50 to 100 | < 50 | < 50 |  |  | C[C@@H](Nc1nc(NC(C2CC2)C2CC2)nc(-c2cccc(C(F)(F)F)n2)n1)C1CC1 [Compound 193]
< 50 | < 50 | < 50 |  |  | C[C@@H](Nc1nc(Nc2ccnc(C3(C#N)CC3)c2)nc(-c2cccc(Cl)n2)n1)C1CC1 [Compound 167]
< 50 | < 50 | < 50 | < 50 |  | CC(Nc1nc(N[C@H](C)C2CC2)nc(-c2cccc(C(F)(F)F)n2)n1)C(F)(F)F (stereo partly drawn) [Compound 203]
< 50 | < 50 | < 50 | < 50 |  | FC1(F)CCC(Nc2nc(NC3CCC(F)(F)C3)nc(-c3cccc(Cl)n3)n2)C1 (stereo not drawn) [Compound 113]
50 to 100 | < 50 | < 50 | 50 to 100 |  | CCC(Nc1nc(NC(CC)C2CC2)nc(-c2cccc(Cl)n2)n1)C1CC1 (stereo not drawn) [Compound 110]
< 50 | < 50 |  | < 50 | 50 to 100 | N#CC1(c2cc(Nc3nc(NC4CC(F)(F)C4)nc(-c4cccc(C(F)(F)F)n4)n3)ccn2)CC1 [Compound 168]
< 50 | < 50 |  | 100 to 1000 | 100 to 1000 | N#CC1(c2cc(Nc3nc(NC4CC(F)(F)C4)nc(-c4cncc(C(F)(F)F)n4)n3)ccn2)CC1 [Compound 401]
< 50 | < 50 |  | 100 to 1000 | < 50 | Fc1cc(F)cc(Nc2nc(NC3CC(F)(F)C3)nc(-n3ccc(C(F)(F)F)n3)n2)c1 [Compound 106]
< 50 | < 50 |  | < 50 | 50 to 100 | FC1(F)CC(Nc2nc(NC3CC(F)(F)C3)nc(-c3cncc(C(F)(F)F)n3)n2)C1 [Compound 161]
< 50 | < 50 | < 50 | 50 to 100 |  | N#CC1(c2cc(Nc3nc(NC4CCC(F)(F)C4)nc(-c4cccc(Cl)n4)n3)ccn2)CC1 (stereo not drawn) [Compound 127]
